According to patent US11118208B2, “Methods for modulating protein galactosylation profiles of recombinant proteins using peracetyl galactose” (ARES TRADING S.A., priority 2016, dated 2021):
Where “and” joins values, the source holds several entries; their conditions need not be identical. Equal values may be shown once.

What was measured:
Type in all cases: cell-based, Chinese hamster
[1] = system: mAb1 cells (CHO-S cells expressing IgG1 mAb1); test: Fed-batch culture of mAb1 cells in deepwell plates (DWP): viable cell density, viability, titer
Description: (§1) First assays were performed with an antibody produced in a CHO cell line: CHO-S cells expressing IgG1 mAb1, herein “Cells mAb1” or “mAb1 cells”. “mAb1” is a fully human monoclonal antibody directed against a soluble protein. Its isoelectric point (pI) is about 8.20-8.30.
(§2) Cells expressing mAb1 were inoculated at 0.3×10^6 cells per millilitre (mL), whereas Cells expressing mAb2 were inoculated at 0.2×10^6 cells per millilitre (mL).
(§3) For examples 1-3: A serum-free chemically defined culture medium was used. It was used as it is, or it was supplemented with α- or β-2-F-peracetyl galactose (herein α- or β-2F-pGal; Biosynth & AX Molecules) at different concentrations (0-200 μM before seeding). The concentrations indicated on FIGS. 1, 2, 3 and 4 are the concentrations in α- or β-2F-pGal in the culture medium at day 0, just before the inoculation. The culture medium was fed, on a regular basis, with a chemically defined feed medium, as well as with glucose in order to keep said glucose level in the range of >0 to about 8 g/L (feeds are done at days 3, 5, 7, 10 and 12).
(§4) The cultures were performed in deepwell plates (DWP) with a working volume of 450 μL. They were incubated at 36.5° C., 5% de CO2, 90% humidity and shaken at 320 rpm. Each of the fed-batch culture lasted 14 days. It is well known that experiments in DWP are artificial, although they allow a first screening of culture conditions. In order to confirm that the results obtained in DWP were reproducible at higher scale, similar experiments were also run in TubeSpin® (also called herein shake tubes or ST), with a working volume of 30 mL cell culture (same culture condition than for deepwell plates).
For DWP experiments, viable cell density and viability were measured with the Guava easyCyte® flow cytometer. Antibody titers were measured with the fortéBIO Octet®.
(§5) The cells were cultivated and the results analysed as disclosed in the material and method section. It is noted that the controls (or control conditions) according to the present invention correspond to cells grown without peracetyl galactose.

[2] = system: galactosylation of mAb2 antibody (mAb2 cells); test: Glycosylation profile of mAb2 produced in TubeSpin (2AB-UPLC)
Description: (§6) Additional assays were performed with another antibody also produced in another CHO cell line: CHO-Ki cells expressing IgG1 mAb2, herein “Cells mAb2” or “mAb2 cells”. “mAb2” is a humanized monoclonal antibody directed against a receptor found on the cell membrane. Its isoelectric point (pI) is about 9.30.
as §3, §4
(§7) Glycosylation profiles were established by capillary gel electrophoresis with laser-induced fluorescence (CGE-LIF; for DWP and for Shake tubes experiments) or by Ultra Performance Liquid Chromatography-2-amino-benzamide labelling technique (2AB-UPLC; for Shake tubes experiments). Groups of glycans were defined as thereafter in Table 3.

[3] = system: mAb2 cells (CHO-Ki cells expressing IgG1 mAb2); test: Fed-batch culture of mAb2 cells in TubeSpin: viable cell density, viability, titer
Description: as §6, §2, §3, §4
(§8) For TubeSpin® experiments, viable cell density and viability were measured with the ViCell®. Antibody titers were measured using Biacore®.

[4] = system: galactosylation of mAb1 antibody (mAb1 cells); test: Glycosylation profile of mAb1 produced in DWP (CGE-LIF)
Description: as §1, §3, §4, §7, §5

[5] = system: mAb1 cells (CHO-S cells expressing IgG1 mAb1); test: Fed-batch culture of mAb1 cells in TubeSpin (shake tubes): viable cell density, viability, titer
Description: as §1, §2, §3, §4, §8

[6] = system: galactosylation of mAb1 antibody (mAb1 cells); test: Glycosylation profile of mAb1 produced in TubeSpin (CGE-LIF); details: for monogalactosylated form changed by (Example 2.2) / total level of galactosylation decreased by (Example 2.2): shake tubes, CGE-LIF
Description: as §1, §3, §4, §7

## CC(=O)OC[C@H]1OC(OC(C)=O)[C@H](F)[C@@H](OC(C)=O)[C@H]1OC(C)=O (stereo in doubt) [α-2F-pGal, α/β-D-galactopyranose, 2-deoxy-2-fluoro-,1,3,4,6-tetraacetate]
[1]; concentration higher than 60 μM
  decrease of titers comparing to control: about 1.2 factor
[1]; concentrations between 30 and 60
  impact on protein titre: no impact on protein titre
[1]; concentrations of about 60 μM and higher
  impact on cell growth: negative impact on cell growth
[1]; concentrations up to 30 μM in medium
  impact on cell growth until the end of culture: no impact on cell growth
[1]; media concentration up to 60 μM, day 10 and day 14
  protein titer compared to the control: stays above the protein titer of the control
[1]; media concentrations below 30 μM
  impact on cell density, cell viability and protein titer: do not impact
[2]
  effect on the overall fucosylated species: +0.5%
[2]; 30 μM
  FA2G1 decrease (absolute change): −0.85%
  change of the FA2G2 abundance: −0.09%
  reduction of galactosylation (absolute change): −0.95%
[2]; 60 μM
  FA2G1 decrease (absolute change): −1.85%
  change of the FA2G2 abundance: −0.19%
  reduction of galactosylation (absolute change): −2.05%
[2]; 90 μM
  FA2G1 decrease (absolute change): −1.2%
  change of the FA2G2 abundance: −0.19%
  reduction of galactosylation (absolute change): −1.4%
[3]; 30 μM
  titer at day 7: ~720 mg/L
  titer at day 14: 3400 to 3420 mg/L
[3]; 60 μM
  titer at day 7: ~720 mg/L
  titer at day 14: 3400 to 3420 mg/L
[3]; 90 μM
  titer at day 7: about 670 mg/L
  titer at day 14: ~3200 mg/L
[3]; 90 μM, shake tubes
  peak viable cell density: 10.0 ×106 viable cells/mL
[3]; 30 and 60 μM
  productivity: globally unchanged
[3]; 30 and 60 μM, shake tubes
  overall viable cell densities compared to the control: comparable to the control
[3]; entire supplement concentration range
  cell viability at day 7: about 97%
[3]; entire supplement concentration range (30-90 μM)
  viabilities compared to the control condition: comparable to the control condition
[4]; 30 μM
  G1F absolute change compared to the control: 1.1%
  G2F absolute change compared to the control: 0.2%
  absolute change in galactosylated N-oligosaccharide compared to the control: 1.3%
  relative decrease of galactosylated N-oligosaccharides compared to control: 17%
[4]; 30 μM in medium
  galactosylated N-oligosaccharides of the protein: 8.3%
[4]; 60 μM
  G1F absolute change compared to the control: 2.5%
  G2F absolute change compared to the control: 0.3%
  absolute change in galactosylated N-oligosaccharide compared to the control: 2.8%
  relative decrease of galactosylated N-oligosaccharides compared to control: 32%
[4]; 60 μM in medium
  galactosylated N-oligosaccharides of the protein: 6.8%
[4]; 120 μM
  G1F absolute change compared to the control: 3.1%
  G2F absolute change compared to the control: 0.35%
  absolute change in galactosylated N-oligosaccharide compared to the control: 3.5%
  relative decrease of galactosylated N-oligosaccharides compared to control: 40%
[4]; 120 μM in medium
  galactosylated N-oligosaccharides of the protein: 6.0%
[4]; 200 μM
  G1F absolute change compared to the control: 4.4%
  G2F absolute change compared to the control: 0.4%
  absolute change in galactosylated N-oligosaccharide compared to the control: 4.8%
  relative decrease of galactosylated N-oligosaccharides compared to control: 52%
[4]; 200 μM in medium
  galactosylated N-oligosaccharides of the protein: 4.8%
[4]; below 30
  inhibition effect on galactosylation: neither α- or β-2F-pGal does have a significant inhibition effect on galactosylation
[4]; concentrations higher than 30 μM
  inhibition effect on galactosylation: a significant inhibition effect is observed
[5]; 30 μM, shake tubes
  product titer at the end of the culture (day 14): 2050 mg/L
[5]; 60 μM, shake tubes, listed as α-2F-p-galactose
  product titer at the end of the culture (day 14): 2130 mg/L
[5]; 90 μM, shake tubes
  product titer at the end of the culture (day 14): 2225 mg/L
[5]; 30, 60 and 90 μM, shake tubes
  growth inhibitory effect in the first part of the culture: no growth inhibitory effect
[5]; 30 and 90 μM, shake tubes
  cell densities compared to control from day 10 until the end of the culture: slightly lower
[5]; any one of 30, 60 and 90 μM, TubeSpin
  impact on cell growth or protein titer until the end of culture: no negative impact on cell growth or protein titer
[5]; between 0 and 90 μM α-2F-p-galactose, 60 μM β-2F-p-galactose, shake tubes
  effect on cell culture performance: No detrimental effect
[5]; α 30-90 μM, β 60 μM, shake tubes, listed as α-2F-p-galactose
  protein titer compared to the control at culture days 5, 7, 10, 12 and 14: comparable at all time points
[6]; 30 μM, TubeSpin
  G1F absolute change compared to the control: 1.9%
  G2F absolute change compared to the control: 0.11%
  relative decrease of galactosylated N-oligosaccharides compared to control: about 16%
[6]; 30 μM
  monogalactosylated form changed by (Example 2.2): −1.9%
  total level of galactosylation decreased by (Example 2.2): 2.0%
[6]; 60 μM, TubeSpin
  G1F absolute change compared to the control: 4.3%
  G2F absolute change compared to the control: 0.27%
  absolute change of galactosylated N-oligosaccharides compared to the control: 4.61% and ~4.5%
  relative decrease of galactosylated N-oligosaccharides compared to control: ~37%
[6]; 60 μM
  total level of galactosylation decreased by (Example 2.2): 4.6%
[6]; 60 μM, listed as α-2F-peracetyl-galactose
  monogalactosylated form changed by (Example 2.2): −4.3%
[6]; 90 μM, TubeSpin
  G1F absolute change compared to the control: 4.3%
  G2F absolute change compared to the control: 0.33%
  relative decrease of galactosylated N-oligosaccharides compared to control: ~36%
[6]; 90 μM
  monogalactosylated form changed by (Example 2.2): −4.3%
  total level of galactosylation decreased by (Example 2.2): −4.5%
